Assay results taken from patent US20250025443A1, “COMPOUNDS AND METHODS FOR TREATING CORONA VIRUSES” (CLEAR CREEK BIO, INC., priority 2021, published 2025).
Where two headings read alike, the source gives them in different places.

Target: SARS-CoV-2 Papain-Like Protease (PLpro) (Severe acute respiratory syndrome coronavirus 2 (2019-nCoV) (SARS-CoV-2), UniProt P0DTD1)
Assay: biochemical
Conditions: read-out: PLpro IC50
[1] = SARS-CoV-2 PLpro enzymatic fluorescence assay
[2] = PLpro enzymatic fluorescence assay, class symbols

SMILES	IC50 [1] [nM]	IC50 [2] [nM]
Cc1cc2c(cc1C(=O)NC1(c3cccc4ccccc34)CC1)NCCN2 [Compound 297, 7-Methyl-N-(1-(naphthalen-1-yl)cyclopropyl)-1,2,3,4-tetrahydroquinoxaline-6-carboxamide]	100 to 1000	
Cc1cccc(/C=C/c2cc(C3(NC(=O)c4cc(OC[C@@H]5CCN5)ccc4C)CC3)c3cccnc3c2)c1 [Compound 704, (S,E)-5-(Azetidin-2-ylmethoxy)-2-methyl-N-(1-(7-(3-methylstyryl)quinolin-5-yl)cyclopropyl)benzamide]		< 100
CCS(=O)(=O)N1CCC([C@@H](C)NC(=O)c2cc(NC3CN(C(=O)OC(C)(C)C)C3)ccc2C)CC1 [Compound 161, tert-Butyl (R)-3-((3-((1-(1-(ethylsulfonyl)piperidin-4-yl)ethyl)carbamoyl)-4-methylphenyl)amino)azetidine-1-carboxylate]	> 5000	
Cc1cc(-c2cc(C3(NC(=O)c4cc(OC[C@@H]5CCN5)ccc4C)CC3)c3cccnc3c2)c(C)o1 [Compound 641, (S)-5-(Azetidin-2-ylmethoxy)-N-(1-(7-(2,5-dimethylfuran-3-yl)quinolin-5-yl)cyclopropyl)-2-methylbenzamide]		< 100
Cc1ccc(OC[C@@H]2CCN2C)cc1C(=O)NC1(c2cc(-c3ccnn3C)cc3ncccc23)CC1 [Compound 578, (S)-2-Methyl-N-(1-(7-(1-methyl-1H-pyrazol-5-yl)quinolin-5-yl)cyclopropyl)-5-((1-methylazetidin-2-yl)methoxy)benzamide]		< 100
C#CC(NC(=O)c1cc(N)ccc1C)c1cccc2ccccc12 (stereo not shown) [Compound 459, 5-Amino-2-methyl-N-(1-(naphthalen-1-yl)prop-2-yn-1-yl)benzamide]	> 5000	
Cc1ccc(OC[C@@H]2CCN2C)cc1C(=O)NC1(c2cc(-c3ncccn3)cc3ncccc23)CC1 [Compound 681, (S)-2-Methyl-5-((1-methylazetidin-2-yl)methoxy)-N-(1-(7-(pyrimidin-2-yl)quinolin-5-yl)cyclopropyl)benzamide]		< 100
Cc1ccc(OC2CCCNC2)cc1C(=O)NC1(c2cccc3ccccc23)CC1 (stereo not shown) [Compound 268, 2-Methyl-N-(1-(naphthalen-1-yl)cyclopropyl)-5-(piperidin-3-yloxy)benzamide]	100 to 1000	
Cc1ccc(OC[C@H]2C[C@@H](O)CN2)cc1C(=O)NC1(c2cccc3ccccc23)CC1 (racemic) [Compound 416, rac-5-(((2R,4R)-4-Hydroxypyrrolidin-2-yl)methoxy)-2-methyl-N-(1-(naphthalen-1-yl)cyclopropyl)benzamide]	< 100	
Cc1ccc(OC[C@@H]2CCN2C)cc1C(=O)NC1(c2cc(OCc3ccccc3)cc3ncccc23)CC1 [Compound 598, (S)-N-(1-(7-(Benzyloxy)quinolin-5-yl)cyclopropyl)-2-methyl-5-((1-methylazetidin-2-yl)methoxy)benzamide]	< 100	
COc1ccc2c(C3(NC(=O)c4cc(OC[C@@H]5CCN5C)ccc4C)CC3)cccc2n1 [Compound 544, (S)-N-(1-(2-Methoxyquinolin-5-yl)cyclopropyl)-2-methyl-5-((1-methylazetidin-2-yl)methoxy)benzamide]	< 100	
C=Cc1cc(C2(NC(=O)c3cc(O[C@@H](C)[C@@H]4CCN4C)ccc3C)CC2)c2cccnc2c1 (relative stereo) [Compound 757, 2-Methyl-5-((S)-1-((S)-1-methylazetidin-2-yl)ethoxy)-N-(1-(7-vinylquinolin-5-yl)cyclopropyl)benzamide]	< 100	
Cc1ccc(OC[C@@H]2CCN2C)cc1C(=O)NC1(c2cc(-c3ccc(CN4CCOCC4)s3)cc3ncccc23)CC1 [Compound 793, (S)-2-Methyl-5-((1-methylazetidin-2-yl)methoxy)-N-(1-(7-(5-(morpholinomethyl)thiophen-2-yl)quinolin-5-yl)cyclopropyl)benzamide]		< 100
